Where a name gives a salt, the structure may show the parent alone. Read-outs that look alike come from different tables or passages of the source. Where a SMILES comes first, the peptide text is derived from it. The star is where a group is joined. Cbz = O=C(OCc1ccccc1)*
Tests used:
[1] = target: T1, SARS-CoV-2 PLpro (nsp3 1564–1878) (Severe acute respiratory syndrome coronavirus 2, UniProt P0DTD1); test: biochemical; parameters: FRET-quenched peptide (Pro3) cleavage by PLpro, 10 min pre-incubation, slope over 20 min, normalised to no-compound control; details: low concentration screen, read-out: % of control remaining
[2] = target: T1, SARS-CoV-2 PLpro (nsp3 1564–1878); test: biochemical; parameters: FRET-quenched peptide (Pro3) cleavage by PLpro, 10 min pre-incubation, slope over 20 min, normalised to no-compound control; details: high concentration screen, read-out: % of control remaining

SMILES: NC(=O)[C@@H]1CCCC[C@@H]1C(=O)Nc1ccc(Cl)c(Cl)c1 [Lu AF21934]
- remaining activity at 1.25 µM ([1]; Well no.=8529): 104%
- remaining activity at 3.75 µM ([2]; Well no.=8529): 104%

SMILES: CCCCN(CCCC)CC(O)c1cc(Cl)cc2c1-c1ccc(Cl)cc1/C2=C/c1ccc(Cl)cc1 (centres unmarked) [Lumefantrine]
- remaining activity at 1.25 µM ([1]; Well no.=5499): 102%
- remaining activity at 3.75 µM ([2]; Well no.=5499): 108%

SMILES: OC[C@@H]1CCCN2CCCC[C@H]12 [Lupinine]
- remaining activity at 1.25 µM ([1]; Well no.=3609): 104%
- remaining activity at 3.75 µM ([2]; Well no.=3609): 107%

SMILES: O=C1[C@@H]2[C@H]3CC[C@H](C3)[C@@H]2C(=O)N1C[C@@H]1CCCC[C@H]1CN1CCN(c2nsc3ccccc23)CC1 [Lurasidone HCl]
- remaining activity at 1.25 µM ([1]; Well no.=4891): 99.3%
- remaining activity at 3.75 µM ([2]; Well no.=4891): 98%

SMILES: O=c1cc(-c2ccc(O)c(O[C@@H]3O[C@H](CO)[C@@H](O)[C@H](O)[C@H]3O)c2)oc2cc(O[C@@H]3O[C@H](CO)[C@@H](O)[C@H](O)[C@H]3O)cc(O)c12 [Luteolin-3',7-diglucoside]
- remaining activity at 1.25 µM ([1]; Well no.=3309): 97.1%
- remaining activity at 3.75 µM ([2]; Well no.=3309): 95.6%

SMILES: O=c1cc(-c2ccc(O)c(O)c2)oc2cc(O)cc(O)c12 [Luteolin]
- remaining activity at 1.25 µM ([1]; Well no.=837): 96.9%
- remaining activity at 1.25 µM ([1]; Well no.=3318): 97.2%
- remaining activity at 3.75 µM ([2]; Well no.=837): 102%
- remaining activity at 3.75 µM ([2]; Well no.=3318): 98.3%

SMILES: CC(=O)NCCc1c(Cc2ccccc2)[nH]c2ccccc12 [Luzindole]
- remaining activity at 1.25 µM ([1]; Well no.=5524): 92.5%
- remaining activity at 3.75 µM ([2]; Well no.=5524): 96.8%

SMILES: O[C@H]1[C@H]2c3cc4c(cc3CN3CCC(=C[C@@H]1O)[C@H]23)OCO4 [Lycorine]
- remaining activity at 1.25 µM ([1]; Well no.=3379): 99.9%
- remaining activity at 3.75 µM ([2]; Well no.=3379): 99.5%

SMILES: CN1C[C@H](CO)C=C2c3cccc4[nH]cc(c34)C[C@H]21 [Lysergol]
- remaining activity at 1.25 µM ([1]; Well no.=3382): 96.8%
- remaining activity at 3.75 µM ([2]; Well no.=3382): 93.3%

SMILES: CCCCCCCC/C=C\CCCCCCCC(=O)OC[C@@H](O)COP(=O)(O)O [Lysophosphatidic acid]
- remaining activity at 1.25 µM ([1]; Well no.=4497): 97.9%
- remaining activity at 3.75 µM ([2]; Well no.=4497): 105%

SMILES: CCc1cnc(N2CCC(c3nc(COc4ccc(-n5cnnn5)cc4)cs3)CC2)nc1 [MBX-2982]
- remaining activity at 1.25 µM ([1]; Well no.=8381): 102%
- remaining activity at 3.75 µM ([2]; Well no.=8381): 99.5%

SMILES: Cn1cc(/C=C/C(=O)c2cccc(F)c2)cc1/C=C/C(=O)NO [MC1568]
- remaining activity at 1.25 µM ([1]; Well no.=4905): 102%
- remaining activity at 3.75 µM ([2]; Well no.=4905): 101%

SMILES: CC1=NN(c2ccccc2)C(=O)C1 [MCI-186]
- remaining activity at 1.25 µM ([1]; Well no.=3901): 103%
- remaining activity at 3.75 µM ([2]; Well no.=3901): 103%

SMILES: COc1ccc(C(=O)/C=C/c2cc(OC)c(OC)c(OC)c2)cc1OC [MD2-IN-1]
- remaining activity at 1.25 µM ([1]; Well no.=8739): 100%
- remaining activity at 3.75 µM ([2]; Well no.=8739): 95.8%

SMILES: CCCCCCn1c(O)c(N=NC(=O)c2ccccc2)c2ccccc21 [MDA 19]
- remaining activity at 1.25 µM ([1]; Well no.=7099): 103%
- remaining activity at 3.75 µM ([2]; Well no.=7099): 103%

SMILES: O=C1C(=O)N(Cc2ccc(Cl)c(Cl)c2)c2ccccc21 [MDK83190]
- remaining activity at 1.25 µM ([1]; Well no.=6404): 101%
- remaining activity at 1.25 µM ([1]; Well no.=8130): 94.6%
- remaining activity at 3.75 µM ([2]; Well no.=6404): 99.4%
- remaining activity at 3.75 µM ([2]; Well no.=8130): 90%

SMILES: c1ccc([C@@H]2CCC[C@@H]2NC2=NCCCCCCCCCCC2)cc1 [MDL 12,330A hydrochloride]
- remaining activity at 1.25 µM ([1]; Well no.=993): 103%
- remaining activity at 3.75 µM ([2]; Well no.=993): 101%

SMILES: NCCC1CCCC(CCN)N1 (centres unmarked) [MDL 26,630 trihydrochloride]
- remaining activity at 1.25 µM ([1]; Well no.=945): 103%
- remaining activity at 3.75 µM ([2]; Well no.=945): 104%

SMILES: O=C(O)/C(=C/c1c(C(=O)O)[nH]c2cc(Cl)cc(Cl)c12)c1ccccc1 [MDL 105,519]
- remaining activity at 1.25 µM ([1]; Well no.=803): 95%
- remaining activity at 3.75 µM ([2]; Well no.=803): 93%

SMILES: CC(C)[C@H](NC(=O)OCc1ccccc1)C(=O)N[C@H](C=O)Cc1ccccc1 [MDL 28170] (Cbz-Val-Phe-aldehyde)
- remaining activity at 1.25 µM ([1]; Well no.=790): 106%
- remaining activity at 3.75 µM ([2]; Well no.=790): 105%

SMILES: CNC(=O)c1ccc(N2C(=S)N(c3ccc(C#N)c(C(F)(F)F)c3)C(=O)C2(C)C)cc1F [MDV3100 (Enzalutamide)]
- remaining activity at 1.25 µM ([1]; Well no.=4759): 102%
- remaining activity at 3.75 µM ([2]; Well no.=4759): 104%

SMILES: CC(C)(CCCCCCCCCCC(C)(C)CC(=O)O)CC(=O)O [MEDICA 16]
- remaining activity at 1.25 µM ([1]; Well no.=5805): 91.5%
- remaining activity at 3.75 µM ([2]; Well no.=5805): 91.6%

SMILES: N#C/C(=C(/N)Sc1ccc(N)cc1)c1ccccc1C(F)(F)F [MEK1/2 Inhibitor]
- remaining activity at 1.25 µM ([1]; Well no.=2562): 94.4%
- remaining activity at 3.75 µM ([2]; Well no.=2562): 96.8%

SMILES: O=C1C(Cl)=C(N2C(=O)CCC2=O)C(=O)c2ccccc21 [MEK Inhibitor II]
- remaining activity at 1.25 µM ([1]; Well no.=2560): 98%
- remaining activity at 3.75 µM ([2]; Well no.=2560): 98.5%

SMILES: CC[N+](CC)(CC)CCOc1ccc(/C=C/c2ccccc2)cc1 [MG 624]
- remaining activity at 1.25 µM ([1]; Well no.=972): 100%
- remaining activity at 3.75 µM ([2]; Well no.=972): 101%

SMILES: CC(C)C[C@@H](C=O)NC(=O)[C@H](CC(C)C)NC(=O)[C@H](CC(C)C)NC(=O)OCc1ccccc1 [MG-132] (Cbz-Leu-Leu-Leu-aldehyde)
- remaining activity at 1.25 µM ([1]; Well no.=8436): 96.8%
- remaining activity at 3.75 µM ([2]; Well no.=8436): 97.5%

SMILES: Cn1nc(C(F)(F)F)cc1-c1cnc(N2CCc3cc(S(=O)(=O)Nc4c(F)cc(Cl)cc4F)cc(N4CCCC4=O)c32)nc1 [MGAT2-IN-1]
- remaining activity at 1.25 µM ([1]; Well no.=8422): 94.8%
- remaining activity at 3.75 µM ([2]; Well no.=8422): 93.1%

SMILES: COc1cc(C(O)CO)ccc1OS(=O)(=O)O (centres unmarked) [MHPG sulfate potassium]
- remaining activity at 1.25 µM ([1]; Well no.=710): 93%
- remaining activity at 3.75 µM ([2]; Well no.=710): 90.8%

SMILES: CC(C)(C)C[C@@H]1N[C@@H](C(=O)N[C@H]2CC[C@H](O)CC2)[C@H](c2cccc(Cl)c2F)[C@]12C(=O)Nc1cc(Cl)ccc12 [MI-773]
- remaining activity at 1.25 µM ([1]; Well no.=6488): 96.1%
- remaining activity at 1.25 µM ([1]; Well no.=8278): 102%
- remaining activity at 3.75 µM ([2]; Well no.=6488): 93%
- remaining activity at 3.75 µM ([2]; Well no.=8278): 97.3%

SMILES: CN1CCN(c2ccc3nc(-c4cc(C(C)(C)C)c(OCCCC(=O)NCCCN=[N+]=[N-])c(C(C)(C)C)c4)[nH]c3c2)CC1 [MIR96-IN-1]
- remaining activity at 1.25 µM ([1]; Well no.=7014): 94.6%
- remaining activity at 3.75 µM ([2]; Well no.=7014): 81.9%

SMILES: O=C(ON1C(=O)CCC1=O)N1CCN(C(c2ccc(Cl)cc2)c2ccc(Cl)cc2)CC1 [MJN110]
- remaining activity at 1.25 µM ([1]; Well no.=5560): 97.4%
- remaining activity at 3.75 µM ([2]; Well no.=5560): 100%

SMILES: O=C(CCCc1ccc(-c2ccccc2F)cc1)Nc1ccc(O)cc1 [MK2a Inhibitor]
- remaining activity at 1.25 µM ([1]; Well no.=2548): 94.2%
- remaining activity at 3.75 µM ([2]; Well no.=2548): 102%

SMILES: Cn1ncnc1COc1nn2c(-c3c(F)cccc3F)nnc2cc1C1CCC1 [MK-0343]
- remaining activity at 1.25 µM ([1]; Well no.=5828): 101%
- remaining activity at 3.75 µM ([2]; Well no.=5828): 102%

SMILES: O=C1O[C@]2(CC[C@H](C(=O)Nc3ccn(-c4ccccc4F)n3)CC2)c2cnccc21 [MK-0557]
- remaining activity at 1.25 µM ([1]; Well no.=6987): 104%
- remaining activity at 3.75 µM ([2]; Well no.=6987): 104%

— article PMC8286840, “Identifying SARS-CoV-2 antiviral compounds by screening for small molecule inhibitors of Nsp3 papain-like protease” (Biochemical Journal, 2021)
